Assay results: PMC8113231 (Nature Communications, 2021)
Where a SMILES comes first, the peptide text is derived from it. Bridges are numbered along the chain shown (N, C = ends). [ ]: non-standard residue; d: D form. NMeF = CN[C@@H](Cc1ccccc1)C(=O)O; NMeS = CN[C@@H](CO)C(=O)O; Sar = CNCC(=O)O

How the values were obtained:
[1] = tested on: A/duck/Hokkaido/Vac-3/07 (H5N1/Vac-3); experiment: microbe, parasite or virus in culture; type: cell-based, influenza A virus
[2] = tested on: HA from A/California/07/2009 (H1N1); type: cell-based, influenza A virus
[3] = tested on: A/whooper swan/Hokkaido/1/08 (H5N1); design: species or system BALB/c mice; settings: mouse, in vivo, 1.9 mg/kg/day
HA on H1N1 virions = type: binding, influenza A virus
HA on H2N2 virions = type: binding, influenza A virus
H5N1/Vac-3 = type: cell-based, influenza A virus
H1N1/Tokyo2619 = type: cell-based, influenza A virus
[4] = tested on: A/Vietnam/UT3040/2004 (H5N1/Vietnam); design: species or system cynomolgus monkeys; settings: cynomolgus monkey, in vivo
in vitro = settings: human, serum

Compound: CC(C)[C@@H]1NC(=O)[C@H]([C@@H](C)O)NC(=O)[C@H](Cc2ccc(O)cc2)NC(=O)[C@H](Cc2c[nH]cn2)NC(=O)[C@H](CO)N(C)C(=O)[C@H](CO)NC(=O)[C@H](Cc2ccccc2)N(C)C(=O)[C@H](Cc2ccccc2)N(C)C(=O)[C@H](CC(=O)O)NC(=O)CN(C)C(=O)[C@H]([C@@H](C)O)NC(=O)[C@H](Cc2c[nH]c3ccccc23)NC(=O)CSC[C@@H](C(N)=O)NC(=O)[C@H](CCCNC(=N)N)NC(=O)[C@@H]2CCCN2C1=O [iHA-100] ({CH2CO}-WT[Sar]D[NMeF][NMeF]S[NMeS]HYTVPRC-NH2; thioether N-15)
- Plaque formation of H5N1/Vac-3 (screen of 28 candidates) [1]: inhibited plaque formation
- Size of viral plaques [1]: reduced the size of viral plaques
- Polykaryon formation mediated by H1 HA [2]: significantly inhibited
- Progression of pneumonia (histopathology) [3]: prevented the progression of pneumonia
- Survival [3]: 40%
- Survival rate, administration started 0 days after infection [3]: comparable with the survival rate in the zanamivir-treated group
- Viral replication in the lungs [3]: significantly suppressed
- Virus-related increase in lung weight [3]: significantly suppressed
- Binding to HA on H1N1 virions (pull-down) (HA on H1N1 virions): bound to HA
- Binding to HA on H2N2 virions (pull-down) (HA on H2N2 virions): bound to HA
- H5N1/Vac-3 virus-mediated RBC membrane fusion (H5N1/Vac-3): inhibited by iHA-100 in a dose-dependent manner
- H1N1/Tokyo2619 virus-mediated RBC membrane fusion (H1N1/Tokyo2619): inhibited by iHA-100 in a dose-dependent manner
- Inhibition of hemagglutination (chicken red blood cells): could not
- IFN-γ in the lungs [4]: significantly reduced
- IL-6 in the lungs [4]: significantly reduced
- IL-15 in the lungs [4]: decreased
- Virus titers in autopsy lung samples at 7 dpi [4]: low virus titers in the lungs of two monkeys
- Body temperature ([4]; 3 mg/kg/day): returned to a normal range
- Bodyweight loss ([4]; 3 mg/kg/day): relatively attenuated
- Lung weights ([4]; 3 mg/kg/day): relatively lower
- Virus in nasal, oral and bronchial swabs ([4]; 3 mg/kg/day): disappeared at 3–6 dpi
- Virus shedding after treatment (3–7 dpi), area under the curve ([4]; po): significantly lower virus shedding
- half-life (in vitro): ~3.85 h
